The subject of series [1] is Sinapis alba, Echinochloa crus-galli, Lolium multiflorum, Chrysanthemum segetum, Setaria viridis, Abutilon theophrasti, Amaranthus retroflexus, Panicum …. The experiment in a line: Post-emergence action against weeds (greenhouse pot test, visual scoring). It is filed as in vivo, monocotyledonous and dicotyledonous weeds. The note with it: post-emergence method, three-leaf stage; 500 g or less of herbicide (A) per hectare; herbicide/safener combination with safeners II-1, II-9, III-1, b-11, b-14, IX-A3; scored after about three to four weeks. The method, then: Seeds or rhizome pieces of monocotyledonous and dicotyledonous weeds were placed into sandy loam soil in plastic pots, covered with soil and grown in a greenhouse under good growth conditions. Three weeks after sowing, the test plants were treated at the three-leaf stage. The compounds according to the invention, formulated as wettable powders or as emulsion concentrates, were sprayed onto the green parts of the plants at various dosages using a water application rate of 300 to 800 I/ha (converted). The test plants were stood in the greenhouse under optimum growth conditions for about three to four weeks, and the action of the preparations was then scored visually in comparison to untreated controls. Post-emergence, too, the herbicide/safener combinations according to the invention have good herbicidal activity against a broad spectrum of economically important weed grasses and broad-leaved weeds.

In series [2] the test system is cotton, oilseed rape, sugar beet and Gramineae crops such as barley, wheat, rye, millet, corn or rice. The experiment in a line: Compatibility with crop plants (greenhouse, visual scoring). It is filed as in vivo. The note with it: pre-emergence method or post-emergence method; herbicide/safener combination with safeners II-1, II-9, III-1, b-11, b-14, IX-A3; four to five weeks after application. The source says: In further greenhouse trials, seeds of a relatively large number of crop plants and weeds were placed into sandy loam soil and covered with soil. Some of the pots were immediately treated as described in Section 1, the others were placed in a greenhouse until the plants had developed two to three true leaves and were then sprayed with various dosages of the herbicide/safener combinations according to the invention, as described in Section 2.

Series [3] relates to Sinapis alba, Chrysanthemum segetum, Avena sativa, Stellaria media, Echinochloa crus-galli, Lolium multiflorum, Setaria viridis, Abutilon theophrasti …. The series can be described thus: Pre-emergence action against weeds (greenhouse pot test, optical scoring). The series is classed as in vivo, monocotyledonous and dicotyledonous weed plants. The settings on record: pre-emergence method; 500 g or less of herbicide (A) per hectare; herbicide/safener combination with safeners II-1, II-9, III-1, b-11, b-14, IX-A3; scored after 3 to 4 weeks. An excerpt: Seeds or rhizome pieces of monocotyledonous and dicotyledonous weed plants were placed in sandy loam soil in cardboard pots and covered with soil. The active compounds (A) and (B), formulated in the form of wettable powders or emulsion concentrates, were then applied to the surface of the covering soil in various dosages as aqueous suspensions or emulsions using a water application rate of 300 to 800 I/ha (converted).
After the treatment, the pots were placed in a greenhouse and kept under good growth conditions for the weeds. Optical scoring of the damage to the plants or emerged plants was carried out after emergence of the test plants after a trial period of 3 to 4 weeks, in comparison to untreated controls. As shown by the results, the tested herbicide/safener combinations have good herbicidal pre-emergence activity against a broad spectrum of weed grasses and broad-leaved weeds.

In the case of `CCC1(C)CC(S(=O)(=O)Cc2cc(F)ccc2F)=NO1` (stereo not shown) [I-2.2], the “herbicidal activity against harmful plants (visual scoring vs untreated controls)” value in series [1] was “very good herbicidal activity”. Moreover, the “damage to crop plants (visual scoring)” value in series [2] was “did not cause any damage”. For the same compound, in series [3], the “herbicidal activity against harmful plants (optical scoring of damage vs untreated controls)” value is given as “very good herbicidal activity”.

For `CC1(C)CC(S(=O)(=O)Cc2c(F)cccc2F)=NO1` [I-3.1], the “herbicidal activity against harmful plants (visual scoring vs untreated controls)” value in series [1] is listed as “very good herbicidal activity”. Moreover, the “damage to crop plants (visual scoring)” value in series [2] is “did not cause any damage”. Besides, the “herbicidal activity against harmful plants (optical scoring of damage vs untreated controls)” value in series [3] was “very good herbicidal activity”.

With `CCC1(C)CC(S(=O)(=O)Cc2c(F)cccc2F)=NO1` (stereo not shown) [I-3.2], the “herbicidal activity against harmful plants (visual scoring vs untreated controls)” value in series [1] is “very good herbicidal activity”. In addition, in series [2], the “damage to crop plants (visual scoring)” value is given as “did not cause any damage”. In addition, the “herbicidal activity against harmful plants (optical scoring of damage vs untreated controls)” value in series [3] was “very good herbicidal activity”.

For `CC1(C)CC(S(=O)(=O)Cc2cccc3c2OCCO3)=NO1` [I-21.1], the “herbicidal activity against harmful plants (visual scoring vs untreated controls)” value in series [1] is “very good herbicidal activity”. The “damage to crop plants (visual scoring)” value in series [2] is “did not cause any damage”. In addition, in series [3], the “herbicidal activity against harmful plants (optical scoring of damage vs untreated controls)” value is given as “very good herbicidal activity”.

Turning to `CCC1(C)CC(S(=O)(=O)Cc2cccc3c2OCCO3)=NO1` (stereo not shown) [I-21.2], the “herbicidal activity against harmful plants (visual scoring vs untreated controls)” value in series [1] was “very good herbicidal activity”. The “damage to crop plants (visual scoring)” value in series [2] is recorded as “did not cause any damage”. Further, the “herbicidal activity against harmful plants (optical scoring of damage vs untreated controls)” value in series [3] is on record as “very good herbicidal activity”.

In the case of `CC1(C)CC(S(=O)(=O)Cc2cccc3c2OC(F)(F)C(F)(F)O3)=NO1` [I-22.1], the “herbicidal activity against harmful plants (visual scoring vs untreated controls)” value in series [1] was “very good herbicidal activity”. The “damage to crop plants (visual scoring)” value in series [2] is listed as “did not cause any damage”. The “herbicidal activity against harmful plants (optical scoring of damage vs untreated controls)” value in series [3] is recorded as “very good herbicidal activity”.

On to `CCC1(C)CC(S(=O)(=O)Cc2cccc3c2OC(F)(F)C(F)(F)O3)=NO1` (stereo not shown) [I-22.2], for which, in series [1], the “herbicidal activity against harmful plants (visual scoring vs untreated controls)” value was “very good herbicidal activity”. For the same compound, in series [2], the “damage to crop plants (visual scoring)” value is given as “did not cause any damage”. Besides, the “herbicidal activity against harmful plants (optical scoring of damage vs untreated controls)” value in series [3] was “very good herbicidal activity”.

For `CC1(C)CC(S(=O)(=O)Cc2cccc3c2OC(F)(F)O3)=NO1` [I-23.1], the “herbicidal activity against harmful plants (visual scoring vs untreated controls)” value in series [1] is listed as “very good herbicidal activity”. For the same compound, in series [2], the “damage to crop plants (visual scoring)” value is reported as “did not cause any damage”. For the same compound, the “herbicidal activity against harmful plants (optical scoring of damage vs untreated controls)” value in series [3] is “very good herbicidal activity”.

`CCC1(C)CC(S(=O)(=O)Cc2cccc3c2OC(F)(F)O3)=NO1` (stereo not shown) [I-23.2]: in series [1], the “herbicidal activity against harmful plants (visual scoring vs untreated controls)” value is on record as “very good herbicidal activity”. In series [2], the “damage to crop plants (visual scoring)” value is “did not cause any damage”. Further, the “herbicidal activity against harmful plants (optical scoring of damage vs untreated controls)” value in series [3] is reported as “very good herbicidal activity”.

On to `CC1(C)CC(S(=O)(=O)Cc2cccc3c2OCC3)=NO1` [I-24.1], for which, in series [1], the “herbicidal activity against harmful plants (visual scoring vs untreated controls)” value is given as “very good herbicidal activity”. In series [2], the “damage to crop plants (visual scoring)” value was “did not cause any damage”. In addition, the “herbicidal activity against harmful plants (optical scoring of damage vs untreated controls)” value in series [3] is given as “very good herbicidal activity”.

In the case of `CCC1(C)CC(S(=O)(=O)Cc2cccc3c2OCC3)=NO1` (stereo not shown) [I-24.2], in series [1], the “herbicidal activity against harmful plants (visual scoring vs untreated controls)” value is given as “very good herbicidal activity”. Further, the “damage to crop plants (visual scoring)” value in series [2] is “did not cause any damage”. Besides, the “herbicidal activity against harmful plants (optical scoring of damage vs untreated controls)” value in series [3] is recorded as “very good herbicidal activity”.

As to `CC1(C)CC(S(=O)(=O)Cc2cc3c(cc2Cl)OCO3)=NO1` [I-52.1, 3-{[(6-Chloro-1,3-benzodioxol-5-yl)methyl]sulfonyl}-5,5-dimethyl-4,5-dihydroisoxazole], the melting point (in general, the temperature of the solid-liquid transition) was found to be 170 °C. Besides, the “herbicidal activity against harmful plants (visual scoring vs untreated controls)” value in series [1] is recorded as “very good herbicidal activity”. Further, in series [2], the “damage to crop plants (visual scoring)” value was “did not cause any damage”. Further, the “herbicidal activity against harmful plants (optical scoring of damage vs untreated controls)” value in series [3] is “very good herbicidal activity”.

As for `CCC1(C)CC(S(=O)(=O)Cc2cc3c(cc2Cl)OCO3)=NO1` (stereo not shown) [I-52.2], the “herbicidal activity against harmful plants (visual scoring vs untreated controls)” value in series [1] is on record as “very good herbicidal activity”. The “damage to crop plants (visual scoring)” value in series [2] is “did not cause any damage”. The “herbicidal activity against harmful plants (optical scoring of damage vs untreated controls)” value in series [3] was “very good herbicidal activity”.

For the compound `Cn1nc(C(F)(F)F)c(CS(=O)(=O)C2=NOC(C)(C)C2)c1OC(F)F` [I-67.1], the “herbicidal activity against harmful plants (visual scoring vs untreated controls)” value in series [1] was “very good herbicidal activity”. In addition, in series [2], the “damage to crop plants (visual scoring)” value is “did not cause any damage”. Also, the “herbicidal activity against harmful plants (optical scoring of damage vs untreated controls)” value in series [3] is listed as “very good herbicidal activity”.

As for `CCC1(C)CC(S(=O)(=O)Cc2c(C(F)(F)F)nn(C)c2OC(F)F)=NO1` (stereo not shown) [I-67.2], the “herbicidal activity against harmful plants (visual scoring vs untreated controls)” value in series [1] is reported as “very good herbicidal activity”. Moreover, in series [2], the “damage to crop plants (visual scoring)” value is on record as “did not cause any damage”. The “herbicidal activity against harmful plants (optical scoring of damage vs untreated controls)” value in series [3] was “very good herbicidal activity”.

`Cn1nc(C(F)(F)F)c(CS(=O)(=O)C2=NOC(C)(C)C2)c1Cl` [I-77.1]: the “herbicidal activity against harmful plants (visual scoring vs untreated controls)” value in series [1] is listed as “very good herbicidal activity”. Besides, the “damage to crop plants (visual scoring)” value in series [2] is listed as “did not cause any damage”. Further, the “herbicidal activity against harmful plants (optical scoring of damage vs untreated controls)” value in series [3] is listed as “very good herbicidal activity”.
